Assay results from US10874739B2, “Near-IR light-cleavable conjugates and conjugate precursors” (The United States of America, as represented by the …, priority 2016, dated 2020).

Tests used:
MDA-MB-468 (EGFR+) = assay: Near-IR light-dependent growth inhibition, MTT, pre-incubation assay (media exchanged prior to photolysis); assay type: cell-based, human; conditions: ±hν
Procedure: (§1) MDA-MB-468 (EGFR overexpression) and MCF-7 (normal EGFR expression) human breast cancer cell lines were obtained from the NCI DTP, DCTD Tumor Repository. MDA-MB-468 was cultured in RPMI supplemented with 2 mM L-glutamine, 11 mM D-glucose, 24 mM sodium bicarbonate, 10% heat-inactivated fetal bovine serum, 100 units/mL penicillin, 100 μg/mL streptomycin, and 0.25 μg/mL amphotericin B. MCF-7 was cultured in DMEM supplemented with 4 mM L-glutamine, 25 mM D-glucose, 44 mM sodium bicarbonate, 10% heat-inactivated fetal bovine serum, 100 units/mL penicillin, 100 μg/mL streptomycin, and 0.25 μg/mL amphotericin B. Both cell lines were grown at 37° C. in an atmosphere of 20% O2 and 5% CO2. Stock cultures were maintained in continuously exponential growth by weekly passage of the appropriate number of cells following trypsinization with 0.25% Trypsin-EDTA (0.9 mM) in PBS.
(§2) MDA-MB-468 or MCF-7 cells were seeded into 96-well plates (5×10^4 cells/well) and allowed to adhere overnight. […] Irradiation times may be calculated according to the following formula:
(§3) [formula] […] Media was removed, 100 μL of DMSO added to each well to solubilize MTT formazan, and absorbance at 550 nm was recorded using a microplate reader. Drug effects were expressed as % cell viability relative to the DMSO (no inhibitor) control. […]

MCF-7 (EGFR−) = assay: as above; assay type: cell-based, human; conditions: ±hν
Procedure: as §1, §2, §3

## CN(C)CCOc1ccc2[nH]c(C(=O)N3C[C@@H](CCl)c4c3cc(O)c3ccccc43)cc2c1 [DuoDM, duocarmycin DM, reference compound]
MDA-MB-468 (EGFR+)
  IC50: 0.007 ± 0.0006 nM
MCF-7 (EGFR−)
  IC50: 0.0133 ± 0.0011 nM
